Laboratory results taken from patent US9738626B2, “Antagonists of prostaglandin EP3 receptor” (Pfizer Inc., priority 2014, dated 2017).

Columns and labels:
[1] = molecular target: human EP3 receptor (Homo sapiens (Human), UniProt P43115); assay: EP3 Radioligand SPA Binding Assay; conditions: [3H]-PGE2 displacement, Millipore EP3 Chem1 membranes; geometric mean; Ki from IC50 by Cheng-Prusoff
Method: To measure the ability of test compounds in the present invention to bind to the human EP3 receptor, and therefore have the potential to antagonize PGE2 activity, radioligand displacement assays were performed. Compound affinity was expressed as a Ki value, defined as the concentration of compound required to decrease [^3H] PGE2 binding by 50% for a specific membrane batch at a given concentration of radioligand.
Test compounds were half log serially diluted in 100% DMSO (J. T. Baker #922401). 1 μL of each compound was added to appropriate wells of a 384-well plate (Matrix Cat #4322). Unlabeled PGE2 (Tocris Cat #2296) at a final concentration of 1 μM was used to determine non-specific binding. 1 μL of 100% DMSO (J. T. Baker #922401) was used to determine total binding. Millipore EP3 Chem1 membranes (prepared in-house from cell paste derived from the Millipore ChemiSCREEN™ Human Recombinant EP3 Prostanoid Receptor Calcium-Optimized Stable Cell Line (Millipore Cat # HTS092C, http://www.millipore.com/catalogue/item/hts092c)) were thawed and diluted in binding buffer (50 mM Hepes pH 7.4 (Lonza Cat #17-737), 5 mM MgCl2 (Sigma-M1028), and 0.1% BSA (Sigma A-7409)) to a final concentration of 1 μg/25 μL. 25 μL of diluted membranes were added to prepared compound plates. WGA coated PVT SPA Beads (Perkin Elmer Cat # RPNQ0060) were diluted in binding buffer to a concentration of 4 μg/ul, and 25 μL of the SPA bead mixture was then added to each well for a final assay concentration of 100 μg/well. [^3H]-PGE2 (Perkin Elmer Cat #NET428) was diluted in binding buffer to a concentration of […], and […] was added to all wells for a final assay concentration of 1.125 nM. Plates were incubated for 30 minutes at r.t. (approximately 25° C.) with shaking. Radioactivity associated with each well was measured after a 10 hour incubation using a Wallac Trilux MicroBeta plate-based scintillation counter and a normalized protocol at 1 minute read/well. The Kd for [^3H]-PGE2 was determined by carrying out saturation binding, with data analysis by non-linear regression, fit to a one-site hyperbola (GraphPad Prism®). IC50 determinations were made from competition curves, analyzed with a proprietary curve fitting program (SIGHTS), similar to GraphPad PRISM® and a 4-parameter logistic dose response equation. Ki values were calculated from IC50 values, using the Cheng-Prusoff equation.
Table 5 below provides the Ki values of Examples for the binding affinity against human EP3 in accordance with the above-described assay. Results are reported as geometric mean Ki values, where the example is identified as a free base or designated salt that is made as a solution for the experiment and N is the number of samples tested for that example and is the sum of the forms identified with the corresponding number of the respective form in parentheses.

[2] = molecular target: human prostaglandin E3 receptor (EP3) (Homo sapiens (Human), UniProt P43115); assay: Functional activity: cellular cAMP HTRF assay, antagonism of sulprostone; format: cell-based; conditions: CHO-K1 cells expressing human EP3; cAMP with 10 nM sulprostone and forskolin; geometric mean
Sequence of human prostaglandin E3 receptor (EP3) (P43115 whole entry): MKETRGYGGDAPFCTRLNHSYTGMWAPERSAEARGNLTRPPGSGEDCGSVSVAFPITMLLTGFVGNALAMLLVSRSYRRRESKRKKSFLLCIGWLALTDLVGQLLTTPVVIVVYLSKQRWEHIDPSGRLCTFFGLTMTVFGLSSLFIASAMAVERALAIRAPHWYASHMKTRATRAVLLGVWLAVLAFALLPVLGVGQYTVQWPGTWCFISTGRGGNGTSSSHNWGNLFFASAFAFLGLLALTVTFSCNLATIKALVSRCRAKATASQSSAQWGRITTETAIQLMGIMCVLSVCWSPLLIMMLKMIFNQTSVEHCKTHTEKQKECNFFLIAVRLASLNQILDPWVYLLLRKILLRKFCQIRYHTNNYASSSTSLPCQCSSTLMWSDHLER
Method: The functional activity of two Examples was determined by measuring the effect on cellular cAMP levels, under conditions whereby antagonism of the EP3 receptor could be measured. Compound activity was expressed as an IC50 value, defined as the concentration of compound required to decrease agonist (sulprostone) activity by 50%. CHO-K1 cells expressing human prostaglandin E3 receptor (EP3, DiscoveRx #95-0159C2) were maintained in Ham's F-12 Nutrient Mixture (Invitrogen #11765-054) containing L-Glutamine (Gibco #25030-081), Geneticin (Gibco #10131-027), Pen Strep (Gibco #15070-063) and 10% heat-inactivated fetal bovine serum (Sigma #F4135). […] Cellular cAMP levels were determined using a Homogeneous Time-Resolved Fluorescence (HTRF) cAMP detection kit (cAMP HI-Range Assay Kit; CisBio #62AM6PEJ). […] The assay plates were then held at r.t. and after 60 minutes, changes in the HTRF signal were read with an Envision 2104 multi-label plate reader using excitation of 330 nm and emissions of 615 and 665 nm. Raw data were converted to nM cAMP by interpolation from a cAMP standard curve (as described in the cAMP detection kit protocol) and IC50 determinations were made from the response curves analyzed with a curve fitting program, similar to GraphPad PRISM® and using a 4-parameter logistic dose response equation. […]

Sequence of human EP3 receptor (P43115 whole entry): as above

SMILES | Ki [1] | IC50 [2]
Cc1cccc2ncc(-c3ccc([C@@]4(C)CCCNC4=O)c(=O)[nH]3)cc12 [Example 1, (R)-3-(3-Methyl-2-oxopiperidin-3-yl)-6-(5-methylquinolin-3-yl)pyridin-2(1H)-one] | 3.3 nM | 30.8 nM
Cc1cc(-c2ccc([C@@]3(C)CCCNC3=O)c(=O)[nH]2)cc2ncccc12 [Example 2, (R)-3-(3-Methyl-2-oxopiperidin-3-yl)-6-(5-methylquinolin-7-yl)pyridin-2(1H)-one] | 7.2 nM | 
CCc1cc(-c2ccc([C@@]3(C)CCCNC3=O)c(=O)[nH]2)cc2ncccc12 [Example 3, (R)-6-(5-Ethylquinolin-7-yl)-3-(3-methyl-2-oxopiperidin-3-yl)pyridin-2(1H)-one] | 4.6 nM | 
C[C@]1(c2ccc(-c3cc(Cl)c4cccnc4c3)[nH]c2=O)CCCNC1=O [Example 4, (R)-6-(5-Chloroquinolin-7-yl)-3-(3-methyl-2-oxopiperidin-3-yl)pyridin-2(1H)-one] | 8.9 nM | 
C[C@]1(c2ccc(-c3cc(C4CC4)c4cccnc4c3)[nH]c2=O)CCCNC1=O [Example 5, (R)-6-(5-Cyclopropylquinolin-7-yl)-3-(3-methyl-2-oxopiperidin-3-yl)pyridin-2(1H)-one] | 7.3 nM | 
C[C@]1(c2ccc(-c3cc(F)c4cccnc4c3)[nH]c2=O)CCCNC1=O [Example 6, (R)-6-(5-Fluoroquinolin-7-yl)-3-(3-methyl-2-oxopiperidin-3-yl)pyridin-2(1H)-one] | 48.6 nM | 
Cc1cccc2ncc(-c3ccc([C@@]4(C)CCNC4=O)c(=O)[nH]3)cc12 [Example 7, (R)-3-(3-Methyl-2-oxopyrrolidin-3-yl)-6-(5-methylquinolin-3-yl)pyridin-2(1H)-one] | 18.6 nM | 34.1 nM
